In publication PMC10390652 (Inorganic chemistry, 2023):

Assay: Biodistribution in healthy mice
Format: in vivo, female Balb/c mice
Conditions: in saline

## [47Sc+3].[Cl-].[Cl-].[Cl-] [free ^47Sc]
n=4
  biodistribution pattern at 1 hour: more widespread uptake within heart, lungs, spleen, kidney, and femur
n=4, listed as [^47Sc]ScCl3
  biodistribution pattern at 1 hour: widespread biodistribution with uptake seen in heart, spleen and kidneys along with the liver, and intestines
